# In patent US8173638B2 (Boehringer Ingelheim International GmbH, priority 2006, dated 2012):
# Target: T1, human CB2R (Homo sapiens, UniProt P34972)
# T1 construct: host or cells: CHO cells
# Test: CB2R mediated modulation of cAMP synthesis
# Format: cell-based
# Details: not given
# Procedure, shortened: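 CHO cells expressing human CB2R treated with compound 30 min at 37 °C in buffer with 1 mM IBMX, 0.25% BSA and 10 uM forskolin. cAMP measured after lysis by DiscoverX-XS kit.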
# T1 sequence (P34972 whole entry): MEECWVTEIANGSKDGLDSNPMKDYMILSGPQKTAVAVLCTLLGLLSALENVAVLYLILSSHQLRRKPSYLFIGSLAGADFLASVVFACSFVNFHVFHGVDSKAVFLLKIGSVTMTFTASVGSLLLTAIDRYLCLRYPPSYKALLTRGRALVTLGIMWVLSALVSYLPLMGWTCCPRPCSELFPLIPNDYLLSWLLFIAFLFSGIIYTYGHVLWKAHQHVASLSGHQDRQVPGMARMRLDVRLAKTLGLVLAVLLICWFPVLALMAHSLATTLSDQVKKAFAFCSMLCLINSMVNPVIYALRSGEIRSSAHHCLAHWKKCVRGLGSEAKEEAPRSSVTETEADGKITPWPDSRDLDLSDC
row,Structure (SMILES),EC50
1,"CC(C)(C)c1cc(NC(=O)N2CCCN(C(=O)NC3CCCC3)CC2)no1 [Compound 217, [1,4]Diazepane-1,4-dicarboxylic acid 1-[(5-tert-butyl-isoxazol-3-yl)-amide] 4-cyclopentylamide]",32 nM

# Same assay, conditions: 0.5 h; CHO cells expressing human CB2R; cAMP inhibited by 1 uM CP55940 defined as 100%; read-out: Agonist Efficacy (%)
row,Structure (SMILES),Emax
1,"CC(C)(C)c1ccc(NC(=O)N2CCCN(C(=O)CCC3CCCCC3)CC2)cc1 [Compound 108, 4-(3-Cyclohexyl-propionyl)-[1,4]diazepane-1-carboxylic acid (4-tert-butyl-phenyl)-amide]",96%
2,"O=C(Nc1ccc2ccccc2c1)N1CCCN(C(=O)c2ccc(Cl)cc2Cl)CC1 [Compound 99, 4-(2,4-Dichloro-benzoyl)-[1,4]diazepane-1-carboxylic acid naphthalen-2-ylamide]",102%
3,"O=C(Nc1ccc(C(F)(F)F)cc1)N1CCCN(C(=O)C2CCC(F)(F)CC2)CC1 [Compound 78, 4-(4,4-Difluoro-cyclohexanecarbonyl)-[1,4]diazepane-1-carboxylic acid (4-trifluoromethyl-phenyl)-amide]",87%
4,"CC(C)c1ccc(NC(=O)N2CCCN(C(=O)C3CCCCC3)CC2)cc1 [Compound 34, 4-Cyclohexanecarbonyl-[1,4]diazepane-1-carboxylic acid (4-isopropyl-phenyl)-amide]",102%
5,"CC(C)(C)c1cnc(NC(=O)N2CCCN(C(=O)N3CCS(=O)(=O)CC3)CC2)s1 [Compound 214, 4-(1,1-Dioxo-1 λ^6-thiomorpholine-4-carbonyl)-[1,4]diazepane-1-carboxylic acid (5-tert-butyl-thiazol-2-yl)-amide]",95%
6,"CC(C)(C)c1cc(NC(=O)N2CCCN(C(=O)N3CCOCC3)CC2)on1 [Compound 225, 4-(Morpholine-4-carbonyl)-[1,4]diazepane-1-carboxylic acid (3-tert-butyl-isoxazol-5-yl)-amide]",106%

# Same assay, conditions: CHO, 0.5 h, read-out: Agonist Efficacy (%)
row,Structure (SMILES),Emax
1,"CC(C)(C)c1cc(NC(=O)N2CCCN(C(=O)NC3CCCC3)CC2)no1 [Compound 217, [1,4]Diazepane-1,4-dicarboxylic acid 1-[(5-tert-butyl-isoxazol-3-yl)-amide] 4-cyclopentylamide]",100%
2,"CC(C)(C)c1cc(NC(=O)N2CCCN(C(=O)C3CCOCC3)CC2)no1 [Compound 142, 4-(Tetrahydro-pyran-4-carbonyl)-[1,4]diazepane-1-carboxylic acid (5-tert-butyl-isoxazol-3-yl)-amide]",110%

# Same assay, conditions: found through the use of the described assays (CB2 agonists); qualitative statement
row,Structure (SMILES),agonistic activity
1,"CC(C)(C)c1cc(NC(=O)N2CCCN(C(=O)c3ccc(Cl)cc3)CC2)no1 [4-(4-Chloro-benzoyl)-[1,4]diazepane-1-carboxylic acid (5-tert-butyl-isoxazol-3-yl)-amide]",agonistic activity
2,"CCc1ccc(NC(=O)N2CCCN(C(=O)CC3CCCCC3)CC2)cc1 [4-(2-Cyclohexyl-acetyl)-[1,4]diazepane-1-carboxylic acid (4-ethyl-phenyl)-amide]",agonistic activity
3,"CC(C)(C)c1cc(NC(=O)N2CCCN(C(=O)N3CCC(S(C)(=O)=O)CC3)CC2)no1 [4-(4-Methanesulfonyl-piperidine-1-carbonyl)-[1,4]diazepane-1-carboxylic acid (5-tert-butyl-isoxazol-3-yl)-amide]",agonistic activity
4,"O=C(Nc1ccc2ccccc2c1)N1CCCN(C(=O)c2ccc(Cl)cc2)CC1 [4-(4-Chloro-benzoyl)-[1,4]diazepane-1-carboxylic acid naphthalen-2-ylamide]",agonistic activity
5,"CC(C)(C)c1ccc(NC(=O)N2CCCN(C(=O)CCC3CCCCC3)CC2)cc1 [4-(3-Cyclohexyl-propionyl)-[1,4]diazepane-1-carboxylic acid (4-tert-butyl-phenyl)-amide]",agonistic activity
6,"CC(C)(C)c1cc(NC(=O)N2CCCN(C(=O)C3CCCNC3)CC2)no1 (centres unmarked) [4-(Piperidine-3-carbonyl)-[1,4]diazepane-1-carboxylic acid (5-tert-butyl-isoxazol-3-yl)-amide]",agonistic activity
7,"CC(C)(C)c1cc(NC(=O)N2CCCN(C(=O)N3CCC(F)(F)CC3)CC2)no1 [4-(4,4-Difluoro-piperidine-1-carbonyl)-[1,4]diazepane-1-carboxylic acid (5-tert-butyl-isoxazol-3-yl)-amide]",agonistic activity
8,"CC(C)(C)c1cc(NC(=O)N2CCCN(C(=O)N3CCN(S(C)(=O)=O)CC3)CC2)no1 [4-(4-Methanesulfonyl-piperazine-1-carbonyl)-[1,4]diazepane-1-carboxylic acid (5-tert-butyl-isoxazol-3-yl)-amide]",agonistic activity
9,"CC(C)c1cnc(NC(=O)N2CCCN(C(=O)N3CCS(=O)(=O)CC3)CC2)s1 [4-(1,1-Dioxo-1λ^6-thiomorpholine-4-carbonyl)-[1,4]diazepane-1-carboxylic acid (5-isopropyl-thiazol-2-yl)-amide]",agonistic activity
10,"Cc1csc(NC(=O)N2CCCN(C(=O)C3CCOCC3)CC2)n1 [4-(Tetrahydro-pyran-4-carbonyl)-[1,4]diazepane-1-carboxylic acid (4-methyl-thiazol-2-yl)-amide]",agonistic activity
11,"CC(C)(C)C(=O)N1CCCN(C(=O)Nc2cc(C(C)(C)C)on2)CC1 [4-(2,2-Dimethyl-propionyl)-[1,4]diazepane-1-carboxylic acid (5-tert-butyl-isoxazol-3-yl)-amide]",agonistic activity
12,"O=C(Nc1nc(-c2ccccc2)cs1)N1CCCN(C(=O)c2ccc(Cl)cc2)CC1 [4-(4-Chloro-benzoyl)-[1,4]diazepane-1-carboxylic acid (4-phenyl-thiazol-2-yl)-amide]",agonistic activity
13,"O=C(CC1CCCC1)N1CCCN(C(=O)Nc2cccc(C(F)(F)F)c2)CC1 [4-(2-Cyclopentyl-acetyl)-[1,4]diazepane-1-carboxylic acid (3-trifluoromethyl-phenyl)-amide]",agonistic activity
14,"O=C(Nc1cc(-c2ccccc2)no1)N1CCCN(C(=O)N2CCOCC2)CC1 [4-(Morpholine-4-carbonyl)-[1,4]diazepane-1-carboxylic acid (3-phenyl-isoxazol-5-yl)-amide]",agonistic activity
15,"COC1CCC(C(=O)N2CCCN(C(=O)Nc3cc(C(C)(C)C)on3)CC2)CC1 (centres unmarked) [4-(4-Methoxy-cyclohexanecarbonyl)-[1,4]diazepane-1-carboxylic acid (5-tert-butyl-isoxazol-3-yl)-amide]",agonistic activity
16,"CC(C)(C)C(=O)N1CCCN(C(=O)Nc2ccc(C(C)(C)C)cc2)CC1 [4-(2,2-Dimethyl-propionyl)-[1,4]diazepane-1-carboxylic acid (4-tert-butyl-phenyl)-amide]",agonistic activity
17,"CSc1ccc(NC(=O)N2CCCN(C(=O)CCC3CCCC3)CC2)cc1 [4-(3-Cyclopentyl-propionyl)-[1,4]diazepane-1-carboxylic acid (4-methylsulfanyl-phenyl)-amide]",agonistic activity
18,"O=C(Nc1cc(Cl)cc(Cl)c1)N1CCCN(C(=O)c2ccc(Cl)cc2)CC1 [4-(4-Chloro-benzoyl)-[1,4]diazepane-1-carboxylic acid (3,5-dichloro-phenyl)-amide]",agonistic activity
19,"O=C(Nc1nc2c(s1)CCCC2)N1CCCN(C(=O)N2CCS(=O)(=O)CC2)CC1 [4-(1,1-Dioxo-1λ^6-thiomorpholine-4-carbonyl)-[1,4]diazepane-1-carboxylic acid (4,5,6,7-tetrahydro-benzothiazol-2-yl)-amide]",agonistic activity
20,"O=C(Nc1ccc2ccccc2c1)N1CCCN(C(=O)c2ccc(C(F)(F)F)cc2)CC1 [4-(4-Trifluoromethyl-benzoyl)-[1,4]diazepane-1-carboxylic acid naphthalen-2-ylamide]",agonistic activity
21,"CCCCc1ccc(NC(=O)N2CCCN(C(=O)CC3CCOCC3)CC2)cc1 [4-(2-Tetrahydro-pyran-4-yl-acetyl)-[1,4]diazepane-1-carboxylic acid (4-butyl-phenyl)-amide]",agonistic activity
22,"CCCCc1ccc(NC(=O)N2CCCN(C(=O)C3CCCC3)CC2)cc1 [4-Cyclopentanecarbonyl-[1,4]diazepane-1-carboxylic acid (4-butyl-phenyl)-amide]",agonistic activity
23,"CC(C)(C)c1ccc(NC(=O)N2CCCN(C(=O)C3CCCC3)CC2)cc1 [4-Cyclopentanecarbonyl-[1,4]diazepane-1-carboxylic acid (4-tert-butyl-phenyl)-amide]",agonistic activity
24,"CCC(C)c1ccc(NC(=O)N2CCCN(C(=O)CC3CCCC3)CC2)cc1 (centres unmarked) [4-(2-Cyclopentyl-acetyl)-[1,4]diazepane-1-carboxylic acid (4-sec-butyl-phenyl)-amide]",agonistic activity
25,"O=C(Nc1ccc(C(F)(F)F)cc1)N1CCCN(C(=O)C2CCCCC2)CC1 [4-Cyclohexanecarbonyl-[1,4]diazepane-1-carboxylic acid (4-trifluoromethyl-phenyl)-amide]",agonistic activity
26,"CSc1ccc(NC(=O)N2CCCN(C(=O)CC3CCCC3)CC2)cc1 [4-(2-Cyclopentyl-acetyl)-[1,4]diazepane-1-carboxylic acid (4-methylsulfanyl-phenyl)-amide]",agonistic activity
27,"O=C(CCC1CCCC1)N1CCCN(C(=O)NCC2CCCCC2)CC1 [4-(3-Cyclopentyl-propionyl)-[1,4]diazepane-1-carboxylic acid cyclohexylmethyl-amide]",agonistic activity
28,"O=C(Nc1ccc(C(F)(F)F)cn1)N1CCCN(C(=O)C2CCOCC2)CC1 [4-(Tetrahydro-pyran-4-carbonyl)-[1,4]diazepane-1-carboxylic acid (5-trifluoromethyl-pyridin-2-yl)-amide]",agonistic activity
29,"O=C(CC1CCCC1)N1CCCN(C(=O)Nc2ccc(OC(F)(F)F)cc2)CC1 [4-(2-Cyclopentyl-acetyl)-[1,4]diazepane-1-carboxylic acid (4-trifluoromethoxy-phenyl)-amide]",agonistic activity

# Same assay, conditions: read-out: hCB2 cAMP EC50
row,Structure (SMILES),EC50
1,"CC(C)(C)c1ccc(NC(=O)N2CCCN(C(=O)CCC3CCCCC3)CC2)cc1 [Compound 108, 4-(3-Cyclohexyl-propionyl)-[1,4]diazepane-1-carboxylic acid (4-tert-butyl-phenyl)-amide]",21 nM
2,"O=C(Nc1ccc2ccccc2c1)N1CCCN(C(=O)c2ccc(Cl)cc2Cl)CC1 [Compound 99, 4-(2,4-Dichloro-benzoyl)-[1,4]diazepane-1-carboxylic acid naphthalen-2-ylamide]",100 nM
3,"O=C(Nc1ccc(C(F)(F)F)cc1)N1CCCN(C(=O)C2CCC(F)(F)CC2)CC1 [Compound 78, 4-(4,4-Difluoro-cyclohexanecarbonyl)-[1,4]diazepane-1-carboxylic acid (4-trifluoromethyl-phenyl)-amide]",71 nM
4,"CC(C)c1ccc(NC(=O)N2CCCN(C(=O)C3CCCCC3)CC2)cc1 [Compound 34, 4-Cyclohexanecarbonyl-[1,4]diazepane-1-carboxylic acid (4-isopropyl-phenyl)-amide]",23 nM
5,"CC(C)(C)c1cnc(NC(=O)N2CCCN(C(=O)N3CCS(=O)(=O)CC3)CC2)s1 [Compound 214, 4-(1,1-Dioxo-1 λ^6-thiomorpholine-4-carbonyl)-[1,4]diazepane-1-carboxylic acid (5-tert-butyl-thiazol-2-yl)-amide]",20 nM
6,"CC(C)(C)c1cc(NC(=O)N2CCCN(C(=O)N3CCOCC3)CC2)on1 [Compound 225, 4-(Morpholine-4-carbonyl)-[1,4]diazepane-1-carboxylic acid (3-tert-butyl-isoxazol-5-yl)-amide]",54 nM
